The values that follow come from patent publication US20240409523A1, “SUGAR AMIDES AND MIXTURES THEREOF” (Clariant International Ltd, priority 2021, published 2024).

A value given as a limit tells only on which side of the number the result lay.

Common to all, as to type: cell-based
The test system of one test is Enterobacter aerogenes. Put plainly: MIC, agar dilution (bacteria). The settings on record: Enterobacter aerogenes (B); Caso-Agar, pH 7 (+/−0.2). The protocol:
(§1) For testing the inhibition of bacteria, the sample was diluted in demineralized water and added in different concentrations to liquid Caso-Agar at 50° C. and is buffered to pH 7 (+/−0.2). […] Each of the solutions is poured into a petri-dish and inoculated with the same amount of bacteria, yeast or mold respectively. The minimum inhibitory concentration (MIC) is the lowest concentration of the sample that inhibits the growth of the respective microorganism where the next lowest dilution fails to inhibit the growth of said microorganism.

Another test deals with Burkholderia cepacia. Kind of test: MIC, agar dilution (bacteria). The settings on record: Burkholderia cepacia (B); Caso-Agar, pH 7 (+/−0.2). How it is done: as §1
For orientation: In agar dilution the substance is mixed into plates at graded concentrations.

In a further test the test system is Pseudomonas aeruginosa. Kind of test: MIC, agar dilution (bacteria). The settings on record: Pseudomonas aeruginosa (B); Caso-Agar, pH 7 (+/−0.2). How it is done:
as §1

The next test relates to Serratia marcescens. Put plainly: MIC, agar dilution (bacteria). The settings on record: Serratia marcescens (B); Caso-Agar, pH 7 (+/−0.2). How it is done: as §1
For a further test, the system named is Klebsiella pneumoniae. Put plainly: MIC, agar dilution (bacteria). The settings on record: Klebsiella pneumoniae (B); Caso-Agar, pH 7 (+/−0.2). How it is done:
as §1

A further test relates to Escherichia coli. Kind of test: MIC, agar dilution (bacteria). The settings on record: Escherichia coli (B); Caso-Agar, pH 7 (+/−0.2). The protocol: as §1
The subject of another test is Staphylococcus aureus. Kind of test: MIC, agar dilution (bacteria). The settings on record: Staphylococcus aureus (B); Caso-Agar, pH 7 (+/−0.2). The protocol: as §1
The next test relates to Pluralibacter gergoviae. Kind of test: MIC, agar dilution (bacteria). The settings on record: Pluralibacter gergoviae (B); Caso-Agar, pH 7 (+/−0.2). How it is done: as §1
A further test has as its system Penicillium minioluteum. Kind of test: MIC, agar dilution (yeast and mold). The settings on record: Penicillium minioluteum (M); Sabouraud-4% Dextrose-Agar, pH 5.6 (+/−0.2). How it is done:
as §1

The next test deals with Aspergillus brasiliensis. Kind of test: MIC, agar dilution (yeast and mold). The settings on record: Aspergillus brasiliensis (M); Sabouraud-4% Dextrose-Agar, pH 5.6 (+/−0.2). How it is done:
as §1

The next test relates to Penicillium funicolosum. Kind of test: MIC, agar dilution (yeast and mold). The settings on record: Penicillium funicolosum (M); Sabouraud-4% Dextrose-Agar, pH 5.6 (+/−0.2). How it is done:
as §1

Another test has as its system Fusarium solani. Kind of test: MIC, agar dilution (yeast and mold). The settings on record: Fusarium solani (M); Sabouraud-4% Dextrose-Agar, pH 5.6 (+/−0.2). The protocol:
as §1

For the next test, the system named is Candida parapsilosis. Kind of test: MIC, agar dilution (yeast and mold). The settings on record: Candida parapsilosis (Y); Sabouraud-4% Dextrose-Agar, pH 5.6 (+/−0.2). How it is done: as §1
In a further test the test system is Aspergillus terreus. Put plainly: MIC, agar dilution (yeast and mold). The settings on record: Aspergillus terreus (M); Sabouraud-4% Dextrose-Agar, pH 5.6 (+/−0.2). The protocol:
as §1

The subject of the next test is Candida albicans. Kind of test: MIC, agar dilution (yeast and mold). The settings on record: Candida albicans (Y); Sabouraud-4% Dextrose-Agar, pH 5.6 (+/−0.2). How it is done:
as §1

The next test concerns Saccharomyces cerevisiae. Put plainly: MIC, agar dilution (yeast and mold). The settings on record: Saccharomyces cerevisiae (Y); Sabouraud-4% Dextrose-Agar, pH 5.6 (+/−0.2). How it is done: as §1

Turning to “Cyclic N-Octanoyl/Decanoyl-N-Methylxylosamide [N-Methyl Xylosamid]”, the “MIC of N-Methyl Xylosamid* (70% active) in water” value (shortened to “MIC … (70% active) in water”) with Enterobacter aerogenes came out at 15000 ppm; in the test with Burkholderia cepacia it was 7500 ppm; in the test with Pseudomonas aeruginosa it was 10000 ppm; in the test on Serratia marcescens it was 10000 ppm; in the test on Klebsiella pneumoniae, 1000 ppm; with Escherichia coli, 15000 ppm. The “MIC … (70% active) in water” value in the test with Staphylococcus aureus is less than 500 ppm; in the test with Pluralibacter gergoviae, 15000 ppm; with Penicillium minioluteum, 1500 ppm; with Aspergillus brasiliensis, 2000 ppm; with Penicillium funicolosum, 1000 ppm; in the test on Fusarium solani it was 1000 ppm. Also, the “MIC … (70% active) in water” value in the test on Candida parapsilosis was determined as 7500 ppm; with Aspergillus terreus, 3000 ppm; with Candida albicans, 3000 ppm; with Saccharomyces cerevisiae, 1000 ppm.
